Measured values from patent US6358885B1, “Substituted phenylheterocyclic herbicides” (Mississippi State University, priority 1992, dated 2002).

Experiments:
wild oat [1] = assay: Test C preemergence/postemergence greenhouse plant response rating 0 to 100; type: in vivo, Avena fatua; conditions: POSTEMERGENCE
Method in brief: (§1)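 Compounds in non-phytotoxic solvent applied preemergence to sandy loam one day after planting, postemergence at the 1–4 leaf stage, or to ~2.5 cm floodwater over silt loam.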

wild buckwheat = assay: Test B preemergence/postemergence greenhouse plant response rating 0 to 10; type: in vivo, Polygonum convolvulus; conditions: 0 to 10 scale
Method in brief: (§2)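 Postemergence treatment of plants two to eighteen cm tall ran alongside preemergence treatment of planted seed, each using compound in a non-phytotoxic solvent.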

crabgrass = assay: as above; type: in vivo, Digitaria spp.; conditions: for Plant response rating, Crabgrass: 0 to 10 scale
Method in brief: as §2

giant foxtail [2] = assay: Test C preemergence/postemergence greenhouse plant response rating 0 to 100; type: in vivo, Setaria faberii; conditions: POSTEMERGENCE
Method in brief: as §1

wild oat [3] = assay: Test B preemergence/postemergence greenhouse plant response rating 0 to 10; type: in vivo, Avena fatua; conditions: POSTEMERGENCE, 0 to 10 scale
Method in brief: as §2

purple nutsedge = assay: as above; type: in vivo, Cyperus rotundus; conditions: 0 to 10 scale
Method in brief: as §2

rape = assay: Test C preemergence/postemergence greenhouse plant response rating 0 to 100; type: in vivo, Brassica napus; conditions: POSTEMERGENCE
Method in brief: as §1

lambsquarters = assay: Test B preemergence/postemergence greenhouse plant response rating 0 to 10; type: in vivo, Chenopodium album; conditions: 0 to 10 scale
Method in brief: as §2

barnyardgrass [4] = assay: Test C flood test plant response rating 0 to 100; type: in vivo, Echinochloa crus-galli
Method in brief: as §1

downy brome = assay: Test C preemergence/postemergence greenhouse plant response rating 0 to 100; type: in vivo, Bromus tectorum; conditions: POSTEMERGENCE
Method in brief: as §1

rice = assay: Test C flood test plant response rating 0 to 100; type: in vivo, Oryza sativa
Method in brief: as §1

cocklebur = assay: Test B preemergence/postemergence greenhouse plant response rating 0 to 10; type: in vivo, Xanthium pensylvanicum; conditions: for Plant response rating, Cocklebur: 0 to 10 scale
Method in brief: as §2

barnyardgrass [5] = assay: as above; type: in vivo, Echinochloa crus-galli; conditions: for Plant response rating, Barnyardgrass: 0 to 10 scale
Method in brief: as §2

umbrella sedge = assay: Test C flood test plant response rating 0 to 100; type: in vivo, Cyperus difformis
Method in brief: as §1

soybean = assay: Test C preemergence/postemergence greenhouse plant response rating 0 to 100; type: in vivo, Glycine max; conditions: POSTEMERGENCE
Method in brief: as §1

chickweed = assay: as above; type: in vivo, Stellaria media; conditions: POSTEMERGENCE
Method in brief: as §1

cotton = assay: as above; type: in vivo, Gossypium hirsutum; conditions: POSTEMERGENCE
Method in brief: as §1

giant foxtail [6] = assay: Test B preemergence/postemergence greenhouse plant response rating 0 to 10; type: in vivo, Setaria faberii; conditions: 0 to 10 scale
Method in brief: as §2

[7] = POSTEMERGENCE section, flood test, Rate 1 g/ha
[8] = Rate 16 g/ha, under POSTEMERGENCE head (flood test species)
[9] = flood test species listed under POSTEMERGENCE, 62 g/ha, 0 to 100 scale
[10] = POSTEMERGENCE section, flood test, Rate 4 g/ha

CC(C)N1C(=O)COc2cc(F)c(-c3nn4c(c3Cl)CCCC4)cc21 [Compound 31]
Plant response rating, Wild oat (wild oat [1]; 62 g/ha, 0 to 100 scale): 50 | Plant response rating (0 to 100), Wild oat (wild oat [1]; Rate 1 g/ha): 10 | Plant response rating (0 to 100), Wild oat (wild oat [1]; Rate 4 g/ha): 30 | Plant response rating (0 to 100), Wild oat (wild oat [1]; Rate 16 g/ha): 30 | Plant response rating, Wild buckwheat (wild buckwheat; POSTEMERGENCE, Rate 10 g/ha): 10 | Plant response rating, Wild buckwheat (wild buckwheat; POSTEMERGENCE, Rate 50 g/ha): 10 | Plant response rating, Wild buckwheat (wild buckwheat; PREEMERGENCE, Rate 50 g/ha): 10 | Plant response rating, Crabgrass (crabgrass; POSTEMERGENCE, Rate 10 g/ha): 4 | Plant response rating (0 to 10 scale), Crabgrass (crabgrass; POSTEMERGENCE, Rate 50 g/ha): 4 | Plant response rating, Crabgrass (crabgrass; PREEMERGENCE, Rate 10 g/ha): 0 | Plant response rating, Crabgrass (crabgrass; PREEMERGENCE, Rate 50 g/ha): 2 | Plant response rating, Giant foxtail (giant foxtail [2]; 62 g/ha, 0 to 100 scale): 40 | Plant response rating (0 to 100), Giant foxtail (giant foxtail [2]; Rate 1 g/ha): 10 | Plant response rating (0 to 100), Giant foxtail (giant foxtail [2]; Rate 4 g/ha): 20 | Plant response rating (0 to 100), Giant foxtail (giant foxtail [2]; Rate 16 g/ha): 30 | Plant response rating, Wild oat (wild oat [3]; Rate 10 g/ha): 5 | Plant response rating, Wild oat (wild oat [3]; Rate 50 g/ha): 6 | Plant response rating, Nutsedge (purple nutsedge; POSTEMERGENCE, Rate 10 g/ha): 2 | Plant response rating, Nutsedge (purple nutsedge; POSTEMERGENCE, Rate 50 g/ha): 5 | Plant response rating, Nutsedge (purple nutsedge; PREEMERGENCE, Rate 50 g/ha): 0 | Plant response rating, Rape (rape; 62 g/ha, 0 to 100 scale): 100 | Plant response rating (0 to 100), Rape (rape; Rate 1 g/ha): 30 | Plant response rating (0 to 100), Rape (rape; Rate 4 g/ha): 60 | Plant response rating (0 to 100), Rape (rape; Rate 16 g/ha): 95 | Plant response rating, Lambsquarter (lambsquarters; POSTEMERGENCE, Rate 10 g/ha): 10 | Plant response rating, Lambsquarter (lambsquarters; POSTEMERGENCE, Rate 50 g/ha): 10 | Plant response rating, Lambsquarter (lambsquarters; PREEMERGENCE, Rate 50 g/ha): 10 | Plant response rating (0 to 100), Barnyardgrass (barnyardgrass [4]; [7]): 20 | Plant response rating (0 to 100), Barnyardgrass (barnyardgrass [4]; Rate 4 g/ha, under POSTEMERGENCE head (flood test species)): 65 | Plant response rating (0 to 100), Barnyardgrass (barnyardgrass [4]; [8]): 90 | Plant response rating, Barnyardgrass (barnyardgrass [4]; [9]): 100 | Plant response rating Downy Brome (downy brome; 62 g/ha, 0 to 100 scale): 40 | Plant response rating (0 to 100), Downy Brome (downy brome; Rate 1 g/ha): 10 | Plant response rating (0 to 100), Downy Brome (downy brome; Rate 4 g/ha): 20 | Plant response rating (0 to 100), Downy Brome (downy brome; Rate 16 g/ha): 40 | Plant response rating (0 to 100), Rice Japonica (rice; [7]): 0 | Plant response rating (0 to 100), Rice Japonica (rice; [10]): 0 | Plant response rating (0 to 100), Rice Japonica (rice; [8]): 35 | Plant response rating Rice Japonica (rice; [9]): 50 | Plant response rating, Cocklebur (cocklebur; POSTEMERGENCE, Rate 10 g/ha): 9 | Plant response rating (0 to 10 scale), Cocklebur (cocklebur; POSTEMERGENCE, Rate 50 g/ha): 9 | Plant response rating, Cocklebur (cocklebur; PREEMERGENCE, Rate 10 g/ha): 0 | Plant response rating, Cocklebur (cocklebur; PREEMERGENCE, Rate 50 g/ha): 3 | Plant response rating, Barnyardgrass (barnyardgrass [5]; POSTEMERGENCE, Rate 10 g/ha): 4 | Plant response rating (0 to 10 scale), Barnyardgrass (barnyardgrass [5]; POSTEMERGENCE, Rate 50 g/ha): 6 | Plant response rating, Barnyardgrass (barnyardgrass [5]; PREEMERGENCE, Rate 10 g/ha): 0 | Plant response rating, Barnyardgrass (barnyardgrass [5]; PREEMERGENCE, Rate 50 g/ha): 3 | Plant response rating (0 to 100), Umbrella sedge (umbrella sedge; [7]): 0 | Plant response rating (0 to 100), Umbrella sedge (umbrella sedge; [10]): 0 | Plant response rating (0 to 100), Umbrella sedge (umbrella sedge; [8]): 0 | Plant response rating Umbrella sedge (umbrella sedge; [9]): 80 | Plant response rating, Soybean (soybean; 62 g/ha, 0 to 100 scale): 80 | Plant response rating (0 to 100), Soybean (soybean; Rate 1 g/ha): 30 | Plant response rating (0 to 100), Soybean (soybean; Rate 4 g/ha): 40 | Plant response rating (0 to 100), Soybean (soybean; Rate 16 g/ha): 60 | Plant response rating, Chickweed (chickweed; 62 g/ha, 0 to 100 scale): 90 | Plant response rating (0 to 100), Chickweed (chickweed; Rate 4 g/ha): 20 | Plant response rating (0 to 100), Chickweed (chickweed; Rate 16 g/ha): 80 | Plant response rating, Cotton (cotton; 62 g/ha, 0 to 100 scale): 100 | Plant response rating (0 to 100), Cotton (cotton; Rate 1 g/ha): 90 | Plant response rating (0 to 100), Cotton (cotton; Rate 4 g/ha): 100 | Plant response rating (0 to 100), Cotton (cotton; Rate 16 g/ha): 100 | Plant response rating, Giant foxtail (giant foxtail [6]; POSTEMERGENCE, Rate 10 g/ha): 5 | Plant response rating, Giant foxtail (giant foxtail [6]; POSTEMERGENCE, Rate 50 g/ha): 5 | Plant response rating, Giant foxtail (giant foxtail [6]; PREEMERGENCE, Rate 10 g/ha): 0 | Plant response rating, Giant foxtail (giant foxtail [6]; PREEMERGENCE, Rate 50 g/ha): 3
